Patent publication US20250236608A1, “EGFR INHIBITORS” (Blueprint Medicines Corporation, priority 2022, published 2025)

Tests used:
EGFR L858R = EGFR L858R (Homo sapiens (Human), UniProt P00533, L858R); assay: Biochemical EGFR inhibition assay, EGFR L858R; conditions: Caliper mobility shift; 1.0 mM ATP or ATP Km; read-out: Enz EGFR_L858R IC50
[1] = target: pEGFR (Tyr1068) in PC-9 cells (Ex19Del) (Homo sapiens (Human), UniProt P00533, DEL746-750); assay: PC-9 pEGFR AlphaLISA assay; assay type: cell-based; conditions: 4 hours incubation, p-EGFR (Tyr1068) AlphaLISA, read-out: Ext pEGFR_PC-9 Ex19Del IC50
Method in brief: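 Cells seeded in phenol-free DMEM with 10% FBS adhered overnight at 37° C./5% CO2, then were exposed for 4 hours to a 4-fold, 10-point compound dilution series. After lysis, phospho-EGFR was read by AlphaLISA SureFire Ultra, and IC50 was fitted from percent inhibition versus log concentration.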

EGFR (d746-750) = EGFR (d746-750) (Homo sapiens (Human), UniProt P00533, DEL746-750); assay: Biochemical EGFR inhibition assay, EGFR (d746-750); conditions: Caliper mobility shift; 1.0 mM ATP or ATP Km; read-out: Enz EGFR_Exon19-del746-750 IC50
Sequence of EGFR (d746-750) (P00533 other isoform, or with tags, fused parts or gaps del 1-694/del 746-750 limits assumed): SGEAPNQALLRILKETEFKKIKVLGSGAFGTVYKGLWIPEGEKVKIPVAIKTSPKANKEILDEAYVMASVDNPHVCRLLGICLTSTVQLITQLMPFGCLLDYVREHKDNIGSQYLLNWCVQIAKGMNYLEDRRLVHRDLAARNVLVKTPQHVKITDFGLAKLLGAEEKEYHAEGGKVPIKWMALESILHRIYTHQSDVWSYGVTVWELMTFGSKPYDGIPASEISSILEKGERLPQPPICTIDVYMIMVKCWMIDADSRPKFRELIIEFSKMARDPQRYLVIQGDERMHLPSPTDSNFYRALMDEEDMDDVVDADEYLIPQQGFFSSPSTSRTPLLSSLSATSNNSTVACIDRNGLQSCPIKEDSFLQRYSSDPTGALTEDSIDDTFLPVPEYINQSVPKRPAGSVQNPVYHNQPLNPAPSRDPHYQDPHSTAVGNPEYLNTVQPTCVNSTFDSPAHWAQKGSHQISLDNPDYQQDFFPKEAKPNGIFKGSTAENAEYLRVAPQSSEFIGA

Sequence of pEGFR (Tyr1068) in PC-9 cells (Ex19Del) (P00533 other isoform, or with tags, fused parts or gaps del 746-750): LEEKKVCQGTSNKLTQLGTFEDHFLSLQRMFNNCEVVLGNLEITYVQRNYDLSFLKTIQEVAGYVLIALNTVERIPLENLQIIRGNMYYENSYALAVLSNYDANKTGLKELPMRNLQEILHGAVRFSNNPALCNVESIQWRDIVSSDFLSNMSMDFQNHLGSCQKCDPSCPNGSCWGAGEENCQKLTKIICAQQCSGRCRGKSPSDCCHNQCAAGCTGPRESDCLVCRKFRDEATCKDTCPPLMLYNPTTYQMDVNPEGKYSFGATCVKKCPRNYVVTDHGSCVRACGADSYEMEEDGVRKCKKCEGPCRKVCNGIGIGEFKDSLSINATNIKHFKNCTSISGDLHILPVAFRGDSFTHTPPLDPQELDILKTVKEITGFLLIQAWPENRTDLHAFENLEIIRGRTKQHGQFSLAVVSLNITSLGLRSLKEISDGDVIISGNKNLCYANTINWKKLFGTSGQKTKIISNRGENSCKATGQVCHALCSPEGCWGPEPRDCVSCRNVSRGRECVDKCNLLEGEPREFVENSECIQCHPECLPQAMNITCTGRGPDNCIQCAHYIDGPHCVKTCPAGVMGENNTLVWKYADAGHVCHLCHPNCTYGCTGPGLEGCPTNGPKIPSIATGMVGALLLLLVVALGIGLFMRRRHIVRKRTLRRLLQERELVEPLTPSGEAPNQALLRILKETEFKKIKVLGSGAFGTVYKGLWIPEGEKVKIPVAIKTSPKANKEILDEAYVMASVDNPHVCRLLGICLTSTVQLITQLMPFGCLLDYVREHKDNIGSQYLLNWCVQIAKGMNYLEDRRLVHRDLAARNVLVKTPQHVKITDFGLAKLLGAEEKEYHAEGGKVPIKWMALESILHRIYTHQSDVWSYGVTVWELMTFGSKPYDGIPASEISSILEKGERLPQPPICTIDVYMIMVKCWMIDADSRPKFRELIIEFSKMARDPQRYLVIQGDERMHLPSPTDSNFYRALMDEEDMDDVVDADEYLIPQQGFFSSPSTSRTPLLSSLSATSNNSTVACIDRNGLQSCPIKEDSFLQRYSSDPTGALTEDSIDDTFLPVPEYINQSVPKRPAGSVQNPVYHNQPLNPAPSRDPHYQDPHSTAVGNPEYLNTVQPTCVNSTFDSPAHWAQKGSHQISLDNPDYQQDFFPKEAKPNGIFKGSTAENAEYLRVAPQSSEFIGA
Sequence of EGFR L858R (P00533 25-1210 L858R): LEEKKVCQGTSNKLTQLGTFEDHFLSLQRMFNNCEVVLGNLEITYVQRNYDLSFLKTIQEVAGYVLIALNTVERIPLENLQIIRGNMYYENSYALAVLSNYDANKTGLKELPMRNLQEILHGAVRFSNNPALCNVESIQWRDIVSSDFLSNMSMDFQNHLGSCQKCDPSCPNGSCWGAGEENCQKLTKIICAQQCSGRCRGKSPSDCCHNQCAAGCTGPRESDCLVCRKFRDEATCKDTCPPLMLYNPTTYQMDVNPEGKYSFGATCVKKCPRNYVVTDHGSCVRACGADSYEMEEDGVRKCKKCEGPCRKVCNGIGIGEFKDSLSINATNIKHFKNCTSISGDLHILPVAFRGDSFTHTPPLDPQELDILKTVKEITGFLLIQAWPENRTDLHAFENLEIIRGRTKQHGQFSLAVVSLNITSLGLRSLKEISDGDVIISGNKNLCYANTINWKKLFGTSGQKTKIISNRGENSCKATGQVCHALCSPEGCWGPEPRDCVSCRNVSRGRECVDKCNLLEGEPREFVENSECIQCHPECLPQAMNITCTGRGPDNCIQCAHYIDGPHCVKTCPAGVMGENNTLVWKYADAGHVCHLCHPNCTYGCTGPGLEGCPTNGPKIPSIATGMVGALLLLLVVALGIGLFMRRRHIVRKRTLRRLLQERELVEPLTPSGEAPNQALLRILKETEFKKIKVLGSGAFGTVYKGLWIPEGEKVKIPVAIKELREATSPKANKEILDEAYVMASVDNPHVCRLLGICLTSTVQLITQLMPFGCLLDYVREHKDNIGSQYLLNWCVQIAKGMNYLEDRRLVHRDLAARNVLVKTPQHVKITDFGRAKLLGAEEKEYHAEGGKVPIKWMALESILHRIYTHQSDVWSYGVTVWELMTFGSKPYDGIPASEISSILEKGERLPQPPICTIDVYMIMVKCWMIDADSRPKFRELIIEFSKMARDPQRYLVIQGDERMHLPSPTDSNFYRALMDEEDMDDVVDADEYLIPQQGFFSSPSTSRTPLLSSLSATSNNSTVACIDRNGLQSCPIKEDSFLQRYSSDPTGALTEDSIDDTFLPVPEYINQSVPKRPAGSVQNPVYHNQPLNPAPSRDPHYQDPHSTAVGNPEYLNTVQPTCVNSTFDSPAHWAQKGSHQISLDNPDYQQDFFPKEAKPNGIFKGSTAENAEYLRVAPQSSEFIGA

Compound | IC50 (EGFR L858R) | IC50 [1] | IC50 (EGFR (d746-750))
COc1cc2ncnc(-c3cn(C)nc3-c3ccccc3)c2cc1NC(=O)c1ccc(F)cn1 [Example 324, 5-fluoro-N-(7-methoxy-4-(1-methyl-3-phenyl-1H-pyrazol-4-yl)quinazolin-6-yl)picolinamide] | 3.8 nM | 2.6 nM | 2 nM
CCOc1cc2ncnc(-c3cn(C)nc3-c3ccccc3)c2cc1OC(=O)N1CCN(C)C[C@@H]1C [Example 96, 7-ethoxy-4-(1-methyl-3-phenyl-1H-pyrazol-4-yl)quinazolin-6-yl(S)-2,4-dimethylpiperazine-1-carboxylate] | 1.6 nM | 1.9 nM | 1.1 nM
COc1cc2ncnc(-c3cn(C)nc3-c3ccccc3)c2cc1N1CCC[C@@H](O)C1 [Example 165, (R)-1-(7-methoxy-4-(1-methyl-3-phenyl-1H-pyrazol-4-yl)quinazolin-6-yl)piperidin-3-ol] | 3.4 nM | 10.2 nM | 1.7 nM
COc1cc2ncnc(-c3cn(CC(F)F)nc3-c3ccccc3)c2cc1[C@H](C)O (single isomer, unassigned) [Example 101, (S)-1-(4-(1-(2,2-difluoroethyl)-3-phenyl-1H-pyrazol-4-yl)-7-methoxyquinazolin-6-yl)ethan-1-ol or (R)-1-(4-(1-(2,2-difluoroethyl)-3-phenyl-1H-pyrazol-4-yl)-7-methoxyquinazolin-6-yl)ethan-1-ol] | 3.2 nM | 5.7 nM | 1.9 nM
COc1cc2ncnc(-c3cn(C)nc3-c3ccccc3)c2nc1O[C@@H](C)c1cnnn1C [Example 42, (S)-7-methoxy-6-(1-(1-methyl-1H-1,2,3-triazol-5-yl)ethoxy)-4-(1-methyl-3-phenyl-1H-pyrazol-4-yl)pyrido[3,2-d]pyrimidine] | 9.6 nM | 43.9 nM | 2.9 nM
COc1cc2ncnc(-c3cn(C)nc3-c3ccccc3F)c2cc1NC(=O)[C@]12COC[C@H]1C2 (single isomer, unassigned) [Example 241, (1S,5S)—N-(4-(3-(2-fluorophenyl)-1-methyl-1H-pyrazol-4-yl)-7-methoxyquinazolin-6-yl)-3-oxabicyclo[3.1.0]hexane-1-carboxamide or (1R,5R)—N-(4-(3-(2-fluorophenyl)-1-methyl-1H-pyrazol-4-yl)-7-methoxyquinazolin-6-yl)-3-oxabicyclo[3.1.0]hexane-1-carboxamide] | 3 nM | 2 nM | 1.5 nM
COc1cc2ncnc(-c3cn(C)nc3-c3ccccc3)c2cc1OC(=O)N1CCN(C)C[C@@H]1C (stereo in doubt) [Example 59, 7-methoxy-4-(1-methyl-3-phenyl-1H-pyrazol-4-yl)quinazolin-6-yl(S)-2,4-dimethylpiperazine-1-carboxylate or 7-methoxy-4-(1-methyl-3-phenyl-1H-pyrazol-4-yl)quinazolin-6-yl (R)-2,4-dimethylpiperazine-1-carboxylate] | 3.3 nM | 4.2 nM | 2 nM
COc1cc2ncnc(-c3cn(C)nc3-c3ccccc3)c2cc1NC(=O)c1ccn(C(C)C)n1 [Example 205, 1-isopropyl-N-(7-methoxy-4-(1-methyl-3-phenyl-1H-pyrazol-4-yl)quinazolin-6-yl)-1H-pyrazole-3-carboxamide] | 1.2 nM | 0.8 nM | 0.8 nM
COc1cc2ncnc(-c3cn(C)nc3-c3ccccc3)c2cc1NC(=O)c1cnn(C(F)(F)F)c1C [Example 234, N-(7-methoxy-4-(1-methyl-3-phenyl-1H-pyrazol-4-yl)quinazolin-6-yl)-5-methyl-1-(trifluoromethyl)-1H-pyrazole-4-carboxamide] | 1.9 nM | 2.8 nM | 1.1 nM

Now from value to compound:

IC50 (EGFR L858R) | IC50 [1] | IC50 (EGFR (d746-750)) | Compound
1.4 nM | 1 nM | 0.8 nM | COc1cc2ncnc(-c3cn(C)nc3-c3ccccc3)c2cc1NC(=O)c1scnc1C [Example 207, N-(7-methoxy-4-(1-methyl-3-phenyl-1H-pyrazol-4-yl)quinazolin-6-yl)-4-methylthiazole-5-carboxamide]
2.1 nM | 1.2 nM | 1.3 nM | COc1cc2ncnc(-c3cn(CCO)nc3-c3ccccc3)c2nc1NC(=O)C12CC(C1)C2 [Example 414, N-(4-(1-(2-hydroxyethyl)-3-phenyl-1H-pyrazol-4-yl)-7-methoxypyrido[3,2-d]pyrimidin-6-yl)bicyclo[1.1.1]pentane-1-carboxamide]
19 nM | 16 nM | 3.7 nM | COc1cc2ncnc(-c3cn(C)nc3-c3ccccc3)c2nc1NC(=O)[C@]1(C(F)(F)F)CCCN1C (single isomer, unassigned) [Example 430, (S)—N-(7-methoxy-4-(1-methyl-3-phenyl-1H-pyrazol-4-yl)pyrido[3,2-d]pyrimidin-6-yl)-1-methyl-2-(trifluoromethyl) pyrrolidine-2-carboxamide or (R)—N-(7-methoxy-4-(1-methyl-3-phenyl-1H-pyrazol-4-yl)pyrido[3,2-d]pyrimidin-6-yl)-1-methyl-2-(trifluoromethyl) pyrrolidine-2-carboxamide]
30.4 nM | 5.9 nM | 1.7 nM | CCOc1cc2ncnc(-c3cn(C)nc3-c3ccccc3)c2nc1NC(=O)C12CC(N(C)C)(C1)C2 [Example 420, 3-(dimethylamino)-N-(7-ethoxy-4-(1-methyl-3-phenyl-1H-pyrazol-4-yl)pyrido[3,2-d]pyrimidin-6-yl)bicyclo[1.1.1]pentane-1-carboxamide]
3.3 nM | 3.9 nM | 1.6 nM | COc1cc2ncnc(-c3cn(C)nc3-c3ccccc3)c2cc1NC(=O)c1ccc(C)nc1 [Example 323, N-(7-methoxy-4-(1-methyl-3-phenyl-1H-pyrazol-4-yl)quinazolin-6-yl)-6-methylnicotinamide]
2.3 nM | 1.5 nM | 1.2 nM | COc1cc2ncnc(-c3cn(C)nc3-c3ccc(F)cc3F)c2nc1NC(=O)[C@]12C[C@H]1CN(C)C2 (single isomer, unassigned) [Example 424, (1R,5R)—N-(4-(3-(2,4-difluorophenyl)-1-methyl-1H-pyrazol-4-yl)-7-methoxypyrido[3,2-d]pyrimidin-6-yl)-3-methyl-3-azabicyclo[3.1.0]hexane-1-carboxamide or (1S,5S)—N-(4-(3-(2,4-difluorophenyl)-1-methyl-1H-pyrazol-4-yl)-7-methoxypyrido[3,2-d]pyrimidin-6-yl)-3-methyl-3-azabicyclo[3.1.0]hexane-1-carboxamide]
0.8 nM | 2 nM | 0.4 nM | CCOc1cc2ncnc(-c3cn(C)nc3-c3ccccc3)c2cc1NC(=O)[C@@]12C[C@@H]1CN(C)C2 (single isomer, unassigned) [Example 256, (1S,5S)—N-(7-ethoxy-4-(1-methyl-3-phenyl-1H-pyrazol-4-yl)quinazolin-6-yl)-3-methyl-3-azabicyclo[3.1.0]hexane-1-carboxamide or (1R,5R)—N-(7-ethoxy-4-(1-methyl-3-phenyl-1H-pyrazol-4-yl)quinazolin-6-yl)-3-methyl-3-azabicyclo[3.1.0]hexane-1-carboxamide]
0.6 nM | 0.3 nM | 0.4 nM | COc1cc2ncnc(-c3cn(CCO)nc3-c3ccccc3)c2cc1NC(=O)c1ccccc1F [Example 264, 2-fluoro-N-(4-(1-(2-hydroxyethyl)-3-phenyl-1H-pyrazol-4-yl)-7-methoxyquinazolin-6-yl)benzamide]
1 nM | 1 nM | 0.6 nM | COC(=O)Nc1cc2c(-c3cn(C)nc3-c3ccccc3)ncnc2cc1OC [Example 157, methyl (7-methoxy-4-(1-methyl-3-phenyl-1H-pyrazol-4-yl)quinazolin-6-yl)carbamate]
2.6 nM | 2.3 nM | 1.3 nM | COc1cc2ncnc(-c3cn(C)nc3-c3ccc(F)cc3)c2nc1NC(=O)[C@]12C[C@H]1CN(C)C2 (single isomer, unassigned) [Example 411, (1R,5R)—N-(4-(3-(4-fluorophenyl)-1-methyl-1H-pyrazol-4-yl)-7-methoxypyrido[3,2-d]pyrimidin-6-yl)-3-methyl-3-azabicyclo[3.1.0]hexane-1-carboxamide or (1S,5S)—N-(4-(3-(4-fluorophenyl)-1-methyl-1H-pyrazol-4-yl)-7-methoxypyrido[3,2-d]pyrimidin-6-yl)-3-methyl-3-azabicyclo[3.1.0]hexane-1-carboxamide]
2.1 nM | 3.5 nM | 0.9 nM | COc1cc2ncnc(-c3cn(C)nc3-c3ccccc3)c2nc1NC(=O)[C@]12C[C@H]1CN(C)C2 (single isomer, unassigned) [Example 393, (1R,5R)—N-(7-methoxy-4-(1-methyl-3-phenyl-1H-pyrazol-4-yl)pyrido[3,2-d]pyrimidin-6-yl)-3-methyl-3-azabicyclo[3.1.0]hexane-1-carboxamide or (1S,5S)—N-(7-methoxy-4-(1-methyl-3-phenyl-1H-pyrazol-4-yl)pyrido[3,2-d]pyrimidin-6-yl)-3-methyl-3-azabicyclo[3.1.0]hexane-1-carboxamide]
0.9 nM | 1.4 nM | 0.3 nM | Cn1cc(-c2ncnc3cc(O)c(NC(=O)C4(C(F)(F)F)CC4)nc23)c(-c2ccccc2)n1 [Example 464, N-[7-hydroxy-4-(1-methyl-3-phenyl-1H-pyrazol-4-yl)pyrido[3,2-d]pyrimidin-6-yl]-1-(trifluoromethyl)cyclopropane-1-carboxamide]
